# Data taken from patent publication US20240043928A1, “BIOMARKERS FOR MYELODYSPLASTIC SYNDROME (MDS) AND METHODS OF USING THE SAME” (Eisai R&D Management Co., Ltd., priority 2020, published 2024).
# Assay: Phase I study NCT02841540: treatment-related adverse events and dose-limiting toxicities
# Assay type: in vivo, human
# Text: Patients were enrolled using a conventional 3+3 dose escalation phase I design, with escalations based on a modified Fibonacci sequence scheme (Storer Biometrics. 1989;45(3):925-937). Dose escalations continued until a dose level at which ≥2 patients of the 3-6 enrolled experienced a dose-limiting toxicity (DLT). Maximally tolerated dose (MTD) was defined as the highest dose at which no more than 1 out of 6 patients experienced a DLT. DLTs were defined as any of the following: any Grade 3 or greater study drug-related non-hematologic toxicity except for Grade 3 nausea, vomiting, fatigue, or diarrhea that resolved to Grade 1 or less within 1 week; failure to administer at least 70% of the protocol-specific dose; or prolonged myelosuppression with the persistence of Grade 4 cytopenia in the absence of persistent leukemia or blast increase 21 or more days after suspending dosing. DLTs were assessed during the first 28 days using National Cancer Institute (NCI) Common Toxicity Criteria for Adverse Events (CTCAE) version 4.03.
# The primary endpoints measured included occurrence of DLTs, the type and frequency of treatment-emergent adverse events (TEAEs), and serious adverse events (SAEs). Key secondary endpoints included drug pharmacokinetics (PK) and preliminary antitumor activity, such as the overall response rate (ORR), effect of drug therapy on transfusion requirements, and overall survival (OS). Biomarker analyses and drug pharmacodynamics (PD) were included as exploratory endpoints. […] In addition, a second schedule (Schedule II) of 21 days on therapy and a rest of 7 days without therapy was explored. […] However, when limited clinical activity was observed on Schedule I, Schedule II was introduced to test whether more prolonged spliceosome modulation would lead to higher clinical activity. Each treatment cycle was 28 days in length. Patients could continue treatment until disease progression or development of unacceptable toxicity.
# Eligibility criteria included normal vitamin A levels and visual acuity that corrected to 20/40 unless a cataract was present. Ophthalmologic evaluation, including fundoscopic imaging and visual evoked potentials, was performed during study screening and periodically throughout the duration of the trial.
smiles,measurement,setting,value
"C/C(=C\C=C\[C@@H](C)c1ccccn1)[C@H]1OC(=O)C[C@H](O)CC[C@@](C)(O)[C@@H](OC(=O)N2CCN(C)CC2)/C=C/[C@@H]1C [Compound 1, (2S,3S,4E,6S,7R,10R)-7,10-dihydroxy-3,7-dimethyl-12-oxo-2-[(2E,4E,6R)-6-(pyridine-2-yl)hepta-2,4-dien-2-yl]oxacyclododec-4-en-6-yl-4-methylpiperazine-1-carboxylate]","Any TEAE (treatment-related, all grades)","Schedule II, 7 mg QD, N = 5",1 (20) n (%)
same,"Diarrhea (treatment-related TEAE, all grades)","Schedule II, 7 mg QD, N = 5",1 (20) n (%)
same,"Dysgeusia (treatment-related TEAE, all grades)","Schedule II, 7 mg QD, N = 5",0 n (%)
same,"ECG QTcF prolonged (treatment-related TEAE, all grades)","Schedule II, 7 mg QD, N = 5",0 n (%)
same,"Fatigue (treatment-related TEAE, all grades)","Schedule II, 7 mg QD, N = 5",0 n (%)
same,"Hypophosphatemia (treatment-related TEAE, all grades)","Schedule II, 7 mg QD, N = 5",0 n (%)
same,"Nausea (treatment-related TEAE, all grades)","Schedule II, 7 mg QD, N = 5",0 n (%)
same,"Vomiting (treatment-related TEAE, all grades)","Schedule II, 7 mg QD, N = 5",0 n (%)
same,dose dependency of treatment related AEs,"Schedule II, 7 mg-20 mg",dose dependency trend
same,"Any TEAE (treatment-related, all grades)","Schedule II, 12 mg QD, N = 5",4 (80) n (%)
same,"Diarrhea (treatment-related TEAE, all grades)","Schedule II, 12 mg QD, N = 5",1 (20) n (%)
same,"Dysgeusia (treatment-related TEAE, all grades)","Schedule II, 12 mg QD, N = 5",1 (20) n (%)
same,"ECG QTcF prolonged (treatment-related TEAE, all grades)","Schedule II, 12 mg QD, N = 5",0 n (%)
same,"Fatigue (treatment-related TEAE, all grades)","Schedule II, 12 mg QD, N = 5",1 (20) n (%)
same,"Hypophosphatemia (treatment-related TEAE, all grades)","Schedule II, 12 mg QD, N = 5",2 (40) n (%)
same,"Nausea (treatment-related TEAE, all grades)","Schedule II, 12 mg QD, N = 5",1 (20) n (%)
same,"Vomiting (treatment-related TEAE, all grades)","Schedule II, 12 mg QD, N = 5",0 n (%)
same,patients with DLT grade 3 sinus bradycardia,"Schedule II, 14 mg",1 of 5
same,"Any TEAE (treatment-related, all grades)","Schedule II, 14 mg QD, N = 5",4 (80) n (%)
same,"Diarrhea (treatment-related TEAE, all grades)","Schedule II, 14 mg QD, N = 5",2 (40) n (%)
same,"Dysgeusia (treatment-related TEAE, all grades)","Schedule II, 14 mg QD, N = 5",0 n (%)
same,"ECG QTcF prolonged (treatment-related TEAE, all grades)","Schedule II, 14 mg QD, N = 5",1 (20) n (%)
same,"Fatigue (treatment-related TEAE, all grades)","Schedule II, 14 mg QD, N = 5",0 n (%)
same,"Hypophosphatemia (treatment-related TEAE, all grades)","Schedule II, 14 mg QD, N = 5",0 n (%)
same,"Nausea (treatment-related TEAE, all grades)","Schedule II, 14 mg QD, N = 5",0 n (%)
same,"Vomiting (treatment-related TEAE, all grades)","Schedule II, 14 mg QD, N = 5",1 (20) n (%)
same,patients with DLTs (Grade 3 QTc prolongation; Grade 3 nausea),"Schedule II, 20 mg",2 of 4
same,subjects reporting grade 3 AEs,"Schedule II, 20 mg",3 of the 4
same,"Any TEAE (treatment-related, all grades)","Schedule II, 20 mg QD, N = 4",4 (100) n (%)
same,"Diarrhea (treatment-related TEAE, all grades)","Schedule II, 20 mg QD, N = 4",4 (100) n (%)
same,"Dysgeusia (treatment-related TEAE, all grades)","Schedule II, 20 mg QD, N = 4",1 (25) n (%)
same,"ECG QTcF prolonged (treatment-related TEAE, all grades)","Schedule II, 20 mg QD, N = 4",2 (50) n (%)
same,"Fatigue (treatment-related TEAE, all grades)","Schedule II, 20 mg QD, N = 4",1 (25) n (%)
same,"Hypophosphatemia (treatment-related TEAE, all grades)","Schedule II, 20 mg QD, N = 4",0 n (%)
same,"Nausea (treatment-related TEAE, all grades)","Schedule II, 20 mg QD, N = 4",2 (50) n (%)
same,"Vomiting (treatment-related TEAE, all grades)","Schedule II, 20 mg QD, N = 4",3 (75) n (%)
same,Anemia (Grade 3 or 4 treatment-related TEAE),"Schedule II, N = 19",0 n (%)
same,ECG QTcF prolonged (Grade 3 or 4 treatment-related TEAE),"Schedule II, N = 19",1 (5) n (%)
same,Fatigue (Grade 3 or 4 treatment-related TEAE),"Schedule II, N = 19",1 (5) n (%)
same,Hypophosphatemia (Grade 3 or 4 treatment-related TEAE),"Schedule II, N = 19",1 (5) n (%)
same,Nausea (Grade 3 or 4 treatment-related TEAE),"Schedule II, N = 19",1 (5) n (%)
same,Platelet count decreased (Grade 3 or 4 treatment-related TEAE),"Schedule II, N = 19",1 (5) n (%)
same,Sinus bradycardia (Grade 3 or 4 treatment-related TEAE),"Schedule II, N = 19",1 (5) n (%)
same,"Any TEAE (treatment-related, all grades)","Schedule II, Total, N = 19",13 (68) n (%)
same,"Diarrhea (treatment-related TEAE, all grades)","Schedule II, Total, N = 19",8 (42) n (%)
same,"Dysgeusia (treatment-related TEAE, all grades)","Schedule II, Total, N = 19",2 (11) n (%)
same,"ECG QTcF prolonged (treatment-related TEAE, all grades)","Schedule II, Total, N = 19",3 (16) n (%)
same,"Fatigue (treatment-related TEAE, all grades)","Schedule II, Total, N = 19",2 (11) n (%)
same,"Hypophosphatemia (treatment-related TEAE, all grades)","Schedule II, Total, N = 19",2 (11) n (%)
same,"Nausea (treatment-related TEAE, all grades)","Schedule II, Total, N = 19",3 (16) n (%)
same,"Vomiting (treatment-related TEAE, all grades)","Schedule II, Total, N = 19",4 (21) n (%)
same,"QTcF (Fridericia method) prolongation, treatment-related TEAE","Schedule II, all patients",16%
same,"diarrhea, treatment-related TEAE","Schedule II, all patients",42%
same,"dysgeusia, treatment-related TEAE","Schedule II, all patients",11%
same,"fatigue, treatment-related TEAE","Schedule II, all patients",11%
same,"hypophosphatemia, treatment-related TEAE","Schedule II, all patients",11%
same,"nausea, treatment-related TEAE","Schedule II, all patients",16%
same,"vomiting, treatment-related TEAE","Schedule II, all patients",21%
same,subjects with treatment related AEs (all grades),"Schedule II, highest dose level tested",100%
same,subjects with treatment related AEs (all grades),"Schedule II, lowest dose level tested",20%
same,patients who experienced an AE characterized as a DLT,both schedules,6 patients
same,subjects reporting treatment related AEs (all grades),both schedules,63 subjects
same,subjects who reported grade 3 treatment related AEs,both schedules,12 subjects
same,ocular adverse event,in vivo,"One event of Grade 3 ocular papilledema was reported, without loss in visual acuity"
